Our source for the IC50 values is patent US12545688B2, “Camptothecin derivative and conjugate thereof” (SICHUAN BAILI PHARMACEUTICAL CO., LTD, priority 2019, dated 2026).

Like-named read-outs stand apart in the source and are kept apart here.

Common to all, as to experiment: In vitro activity test, inhibition of target cell proliferation (MTS)
Holding throughout (assay type): cell-based

Experiment [1] concerns Bxpc-3. The following applies: Homo sapiens, read-out: IC50 for the inhibition of target cell proliferation in vitro, Bxpc-3. Here is the method: (§1) • Cells: A431, SW620, BXPC3, Fadu from the Cell Bank of the Chinese Academy of • Sciences Cell • Culture medium DMEM: Gibco • FBS: BIOWEST
(§2) • Growth medium (with 10% FBS, Penicillin/streptomycin (100 U/mL) • Detection medium (with 1% FBS, Penicillin/streptomycin (100 U/mL)
(§3) Turn on the UV light of the biological safety cabinet 30 minutes in advance, and then turn on the ventilation for 3 minutes. The growth medium, detection medium, D-PBS and trypsin were preheated in a constant temperature water bath at 37° C., and then the surfaces were disinfected with alcohol and placed in a biological safety cabinet. Place the cells with a confluence of about 80% in a biological safety cabinet, aspirate the old medium, rinse with D-PBS, aspirate and discard, digest with trypsin for 2-3 min, add growth medium to neutralize, and centrifuge. 1200 rpm, 3 min. Aspirate the centrifugation supernatant, mix with 4 mL of detection medium, and count 100 uL (50 uL of cell fluid is taken out, 50 μL of Trypan Blue Stain is added and mixed, and counted after mixing). According to the pre-optimized cell plating density, 80 ul/well was plated in a 96-well plate. Only 80 uL detection medium was added to wells E11 and F11, and 150 uL of DPBS was added to the edge wells. 24 h after plating, add diluted antibody, 20 uL per well and set control, only add 20 uL detection medium in column 11, set 2 duplicate wells for each concentration, and mix on a cell vortex shaker after adding, 550 rpm, 3 min.
(§4) Dilution of the antibody solution: use the detection medium to prepare the test solution with an initial concentration of 5 uM and 300 uL in the first column of the V-shaped 96-well plate, and then add 240 uL of detection medium to the second to 10th columns respectively, take 60 uL from the first column of mixing and add it to the second column, mix up and down with a row gun for 10 times, discard the pipette tip, and operate the following 7 concentrations in sequence.
(§5) After 4 days, take out the MTS reagent, thaw at room temperature in the dark, vortex and mix well, add 20 μL of CellTiter One Solution Reagen MTS reagent per 100 μL of cell culture volume along the side wall of the well in the biological safety cabinet, and tap gently. After the MTS solution was evenly mixed, it was placed in a cell incubator for 2 h in the dark. After the reaction, the 96-well plate was taken out, the absorbance at OD490 nm was detected in a microplate reader, and the data was recorded, organized, analyzed and stored.

Experiment [2] deals with SW620. Conditions: Homo sapiens, SW-620, 96 h, read-out: IC50 for the inhibition of target cell proliferation in vitro, SW620. As to the method:
as §1, §2, §3, §4, §5

Experiment [3] relates to A431. The following applies: Homo sapiens, A-431, 96 h, read-out: IC50 for the inhibition of target cell proliferation in vitro, A431. As to the method: as §1, §2, §3, §4, §5
Experiment [4] relates to Fadu. Conditions: Homo sapiens, 96 h, read-out: IC50 for the inhibition of target cell proliferation in vitro, Fadu. As to the method: as §1, §2, §3, §4, §5
Where [5] appears, read: 96 h, Bxpc-3 cells, MTS after 4 days.

For the compound `CC[C@@]1(O)C(=O)OCc2c1cc1n(c2=O)Cc2c-1nc1cc(F)c(C)c3c1c2[C@@H](N(C)C(=O)CO)CC3` [Compound 6], the IC50 in experiment [1] (setting [5]) was found to be 13.1 nM; in experiment [2] (SW620 cells, MTS after 4 days), 17.7 nM; in experiment [3] (A431 cells, MTS after 4 days), 3.63 nM; in experiment [4] (Fadu cells, MTS after 4 days), 1.64 nM.

In the case of `CC[C@@]1(O)C(=O)OCc2c1cc1n(c2=O)Cc2c-1nc1cc(F)c(C)c3c1c2[C@@H](N(C)C(=O)[C@H](C)O)CC3` [Compound 16], the IC50 in experiment [1] (setting [5]) was 0.00256 to 0.0128 nM; in experiment [2] (SW620 cells, MTS after 4 days), 0.064 to 0.32 nM; in experiment [3] (A431 cells, MTS after 4 days) it was 0.03 nM; in experiment [4] (Fadu cells, MTS after 4 days), 0.0014 nM.

As to `CCCN(C(=O)CO)[C@H]1CCc2c(C)c(F)cc3nc4c(c1c23)Cn1c-4cc2c(c1=O)COC(=O)[C@]2(O)CC` [Compound 12], the IC50 was 1.6 to 8 nM in experiment [1] (BXPC-3, 96 h); 200 to 1000 nM in experiment [2]; 1.1 nM in experiment [3]; 0.13 nM in experiment [4] (FaDu).

Regarding `CC[C@@]1(O)C(=O)OCc2c1cc1n(c2=O)Cc2c-1nc1cc(F)c(C)c3c1c2[C@@H](N(C)C(=O)C1(O)CC1)CC3` [Compound 14], the IC50 in experiment [1] (BXPC-3, 96 h) is 153 nM; in experiment [2] it was 200 to 1000 nM; in experiment [3] it was 93.3 nM; in experiment [4] (FaDu), 53 nM.
